Source: US7189750B2, “Thiazole-based nitric oxide donors having at least two thiazole moieties and uses thereof” (priority 2004, dated 2007)
Entries after “also recorded” stand apart in the source; their conditions may differ.

Legend:
[1] = tested on: isolated rat aorta; assay: In vitro vasorelaxation of epinephrine-contracted rat aortic rings (CCRC); format: cell-based
Text: Male Sprague Dawley rats were anaesthetized using intraperitoneal injection of ketamine and xylazine (50 and 10 milligram per kilogram, respectively) and the thoracic aorta, the large upper portion of the descending aorta, starting at the caudal border of the chest bone, was removed thereafter, while carefully removing the paraadventetial tissue surrounding the vessel. Aortae were cut into rings of 4–5 millimeters and mounted onto the tissue path. The path buffer (Krebs-bicrbonate) was constantly gassed with carbogen and maintained at 37° C. The rings were preloaded under 2 g tension and equilibrated for 90 minutes, while refreshing the buffer every 15 minutes. After stabilization, the rings were contracted with epinephrine (1 μM). Cumulative Concentration-Response Curves (CCRC) were measured for the vasorelaxing effect induced by adding various concentrations, ranging from 10^−10 M to 10^−5 M of Pet-2, Pet-3, Pet-7, Pet-8, Pet-12, Pet-24, Pet-43, Pet-59, Pet-147, Pet-152 and Pet-154, and glyceryltrinitrate (GTN), according to the procedure described in Feelich et al., Molecular Pharmacology, 56:243–253 (1999). The vehicle, which was used for this experiment was water:ethanol:propyleneglycol at proportional ratio of 1:1:1.
The vasorelaxing effect of the thiazole-derived NO-donors according to the present invention was measured on slices of thoracic aorta of rats contracted with epinephrine, as described hereinabove.

[2] = tested on: c-GMP in slices of thoracic aorta of rats; assay: Cyclic-GMP measurement in aortic rat tissue (radioimmunoassay); format: cell-based; details: rat aorta; for cGMP Post-infusion: post-infusion (repeated treatment)
Procedure: GTN (10^−6 M) was added to the chamber and, 1 minute after exposure to the drug, rings (usually 3–5) were taken, wrapped with aluminum foil and immediately frozen in liquid nitrogen for storage. Control sample group was treated with the vehicle solution only. At the time of analysis, rings were thawed, blotted over a dry gauzed and weighted. A known weight of tissue was homogenized in 2 ml ice-cold modified Hank's balanced salt solution containing (in gram/liter) NaCl 8; KCl 0.4; glucose 1; KH2PO4 0.06; Na2HPO4 0.047; Phenol red 0.017 and further containing 25 mM EDTA (disodium salt). The homogenate was centrifuged at 4000 g (force units) for 10 minutes at 2–4° C. and the supernatant was thereafter transferred into fresh pre-cooled test tube containing 1 ml of acetonitrile. The tubes were vortex mixed for a few seconds and subsequently centrifuged at 4000 g for 5 minutes at 2–4° C., to remove the precipitated protein. Each supernatant was transferred into a clean test tube and evaporated to dryness under a stream of nitrogen at 55° C. The dry residue was reconstituted with 10 volumes of Tris-EDTA buffer pH 7.5 (0.05 M Tris containing 4 mM EDTA). Aliquots of 100 μl of the reconstituted solution in duplicate were used for c-GMP measurements using Amersham RIA kit, as is described in Haj-Yehia & Benet [Pharmacology, 1995, 273, 1, pp. 94–100]. Standard curves were plotted with six concentrations (0, 0.5, 1, 2, 4 and 8 pmoles of c-GMP per tube).
The NO-tolerance effect of GTN and NO-donor compounds according to the present invention was measured by following the production of c-GMP in slices of thoracic aorta of rats. Thus, the production of c-GMP was measured as described in the methods section above for the reference NO-donor compound GTN, and for the NO-donors of the present invention Pet-2, Pet-3, Pet-7, Pet-8, Pet-10, Pet-12, Pet-24, Pet-59, Pet-147, Pet-149, Pet-152, Pet-154 and Pet-155.

[3] = tested on: Male Sprague Dawley rats; assay: Induction of in vivo nitrate tolerance: cGMP in aorta of rats infused with the compound; set-up: species or system rat; details: for in vivo tolerance induction: cGMP in aorta of rats pre-treated in vivo with the compound, 200 μg/hour for 16 hours; for level of cGMP following a repeated treatment in vivo: aorta of rats pre-treated in vivo, re-exposed to 1 μM
Procedure: For c-GMP levels and tolerance development, the rat's thoracic aorta was isolated after exposure to the tested compound in vivo, and measured as described above in the in vitro assays.
Male Sprague Dawley rats (220 to 250 grams) were housed under constant temperature and humidity conditions. Light was maintained at a 12/12 light dark cycle. Except for 12 hours before the experiment, when food fasting was initiated, all rats had free access to standard rat pellet diet and tap water. The animals were anesthetized by intraperitoneal injection of ketamine and xylazine combination (50 and 10 milligram per kilogram, respectively). […] The catheters were filled with normal saline solution containing 1000 IU/ml of heparin and plugged with a metal pin. Catheters were externalized to the back of the neck region and secured by a polyester felt disk.
After implantation, the rats were individually housed until they regained their preoperative weight and appeared healthy (3 to 4 days post-operation). At this time point (day 0), an osmotic mini-pump (Alza Corp., Palo Alto, Calif.) delivering constant volume (10 μl/hour) of vehicle or drug was connected to one of the intravenous catheters.
For inducing tolerance to the tested NO-donor according to the present invention, the animals received 200 μg/hour of the tested compound for 16 hours (short-term-induced tolerance). A similar number of animals were processed by the same surgical procedure and received the vehicle alone (10 μl/hour of a solution consisting of 30% ethanol and 30% propylene glycol in sterile distilled water for injection).
At the end of the infusion periods used for the development of tolerance (16 hour), the rats were anesthetized as described above, the two catheters were externalized and the delivering catheters were disconnected from the mini-pump. The abdomen was opened by midline incision and the thoracic aorta were isolated, washed and cleaned from the surrounding tissues. Strips of the treated aortas were pooled in chambers containing Krebs-Hanseliet buffer (10 ml), and exposed to 1 μM of the tested NO-donor (final concentration) for 120 seconds. The tissues were quickly collected and frozen in liquid nitrogen for cGMP measurement, described hereinabove.

[4] = tested on: isolated rat aorta; assay: In vitro induction of tolerance and cross-tolerance: vasorelaxation of pre-exposed rat aortic rings; format: cell-based; details: for EC50: Rattus norvegicus; for tolerance induction in vitro: rings pre-treated with epinephrine and then with the same compound (0.44 mM)
Procedure: Aortic rings were prepared as described hereinabove, and were exposed to 0.44 mM GTN (vehicle was water:ethanol:propyleneglycol at proportional ratio of 1:1:1) for 1 hour before CCRC construction, to thereby induce tolerance to nitroglycerine. At the end of the tolerance induction period, rings were thrice washed with the path buffer (Krebs-bicrbonate) every 15 minutes for the following hour and then CCRC for vasorelaxation on GTN-induced tolerance rings were constructed for GTN (pretreated versus untreated rings, FIG. 15), in order to verify the ability to induce and measure GTN tolerance induction in vitro
Attempted induction of tolerance to the NO-donating compounds of the present invention was performed under the same conditions as for GTN. Thus, in an exemplary experiment, rings were exposed to 0.44 mM solution of Pet-3 in the attempt to induce tolerance for Pet-3. CCRC were then measured for the vasorelaxing effect of Pet-3 on a group of rings which were pre-exposed to Pet-3 as to induce tolerance to Pet-3, and for an untreated control group. The above protocol was repeated with Pet-2, Pet-7, Pet-8, Pet-12, Pet-24, Pet-43, Pet-149 and Pet-152.
Cross-tolerance studies were conducted using the same technique described above for measuring vasorelaxation of aortic rings from rats. Two groups of aortic rings samples were pre-treated with GTN, then one group was measured for vasorelaxation by GTN and the second group for vasorelaxation by Pet-12, an exemplary NO-donor according to the present invention. For the opposite cross-tolerance studies, two groups of aortic rings samples were pre-treated with Pet-12, then one group was measured for vasorelaxation by GTN and the second group for vasorelaxation by Pet-12.

[5] = tested on: anesthetized hypertensive Sprague-Dawley male rats; assay: Hypotensive effects: mean arterial pressure after iv bolus in phenylephrine-treated rats; format: in vivo; details: rat
Procedure: Mean arterial pressure (MAP) was monitored and determined during bolus infusion of Pet-2, Pet-3, Pet-7, Pet-8, Pet-12 and Pet-13. Briefly, polyethylene catheters (PE50) were inserted into the carotid artery and into the jugular vein of anesthetized hypertensive Sprague-Dawley male rats (200–300 grams). A blood pressure recorder was placed within the carotid artery. Phenylephrine (0.1 mg) was then injected and the mean arterial blood pressure (MABP) was monitored continuously until a stable baseline was reached. The hypotensive effects of intravenous (iv) bolus doses (0.1 mg of each tested compound) administered intravenously at the jugular vein in minimal volume of vehicle (0.2 ml per dose) were evaluated. Five minutes were allowed between each dose, during which the maximal decrease in MAP was recorded and a dose-response graph comparing the hypotensive effect of the compounds was constructed.

[6] = vasorelaxation, rat aortic rings contracted with 1 μM epinephrine, 10^−10 M to 10^−5 M, read-out: Concentration
[7] = vasorelaxation, rat aortic rings contracted with 1 μM epinephrine, given as negative log value, read-out: EC50 (converted)
[8] = vasorelaxation of rings pre-exposed to 0.44 mM of the same compound for 1 hour, given as negative log value, read-out: EC50 (converted)
[9] = vasorelaxation of rings pre-exposed to 0.44 mM of the same compound for 1 hour, read-out: Concentration

SMILES | EC50 [1, 6] | EC50 [1, 7] | cGMP Post-infusion [2] | cGMP Pre-infusion [2] | in vivo tolerance induction [3] | EC50 [4, 8] | EC50 [4, 9] | vasorelaxation in rings pre-treated with GTN (cross-tolerance, words) ([4]; rings made tolerant to GTN) | tolerance after pre-treatment with Pet-12, to itself and to GTN ([4]; rings pre-treated with Pet-12) | tolerance induction in vitro [4] | EC50 ([1]; Rattus norvegicus) | EC50 ([1]; Rattus norvegicus, read-out: Concentration) | vasorelaxation effect as compared with glyceryltrinitrate ([1]; isolated rat aorta, 1 μM epinephrine) | level of cGMP following a repeated treatment in vivo [3] | EC50 ([4]; 1 h) | EC50 ([4]; 1 h, read-out: Concentration) | c-GMP level following a repeated treatment [2] | hypotensive effect on MAP following successive administrations [5]
Cc1nc(-c2cccnc2)sc1CCO[N+](=O)[O-] [Pet-12, 3-[4-Methyl-5-(2-nitrooxy-ethyl)-thiazole-2-yl]-pyridine] | 39.8 nM | 39.8 nM | 112 ± 12 pmol/g tissue | 127 ± 11 pmol/g tissue | absence of tolerance induction; also recorded: absence of tolerance effect; also recorded: lack of tolerance induction | 63.1 nM | 63.1 nM | absence of tolerance induction effect; also recorded: no effect | absence of tolerance induction effect; also recorded: does not evoke tolerance | absence of tolerance induction |  |  |  |  |  |  |  | 
CCc1nc(C)c(CCO[N+](=O)[O-])s1 [Pet-2, 2-Ethyl-4-methyl-5-(2-nitrooxy-ethyl)-thiazole] |  |  | 140 ± 13 pmol/g tissue | 143 ± 13 pmol/g tissue | absence of tolerance induction; also recorded: absence of tolerance effect |  |  |  |  |  | 25.1 nM | 25.1 nM | superior | remained substantially unchanged | 39.8 nM | 39.8 nM |  | 
O=[N+]([O-])OCC(CO[N+](=O)[O-])O[N+](=O)[O-] [GTN, glyceryl trinitrate, reference compound] | 44.7 nM | 28.2 nM | 45 ± 12 pmol/g tissue | 127 ± 11 pmol/g tissue | tolerance inducing effect | 31.6 nM | 44.7 nM |  |  | tolerance induced |  |  |  | decreased |  |  | significantly reduced | attenuation
